Legend:
[1] = test system: HL-60, a promylocytic cell line; test: Bsh3 expression in HL-60 cells after treatment; format: cell-based; details: HL60 cells treated with the agent
Description: In addition to being a marker of tumor aggressiveness and treatment potential, Bsh3 expression can be used as a measurement of the effectiveness of anti-tumor therapy. In the Examples, it is shown that HL-60, a promylocytic cell line, had high levels of Bsh3 expression. […] The reduction in expression correlated with the degree of differentiation, the greater the differentiation, the lower the level of Bsh3 expression. Accordingly, Bsh3 expression can be used to measure the effectiveness of anti-tumor treatment: if Bsh3 expression decreases during treatment, the treatment protocol is effective and can be continued, whereas if Bsh3 expression remains unaltered, a different therapeutic regime or protocol needs to be performed.

[2] = test system: HeLa cells; test: siRNA depletion in thymidine-synchronized HeLa cells, immunofluorescence staining of metaphase cells, with or without Vinblastine; format: cell-based, human; details: Buffer-transfected cells
Procedure: To further analyze the mitotic defects apparent in Bsh3-depleted cells, siRNA depletion was performed using thymidine-synchronized cells. Briefly, HeLa cells were blocked by thymidine 40 hr after siRNA transfection. After 20 hr of thymidine treatment, cells were washed and cultured in thymidine free media for 14 hr, followed by immunofluorescence staining analysis using the anti-centromere antibody, ANA-C (Sigma). Chromosomes and mitotic spindles were localized by Hoechst and anti-α-tubulin staining, respectively. […] To distinguish these two possibilities, siRNA depletion and video-microscopy were performed using a HeLa cell line expressing the histone H2B-GFP fusion protein. While the wild-type cells were able to congress and segregate their chromosomes in 45-60 min, siRNA treated cells (30%) took more than 2 hr for the same process due to the fact that some chromosomes were delayed in alignment at the metaphase plate. […] However, only 0.34% of buffer-treated cells remained in metaphase (Table 1).
To confirm this interpretation, it was analyzed whether human Bsh3 depleted cells were more sensitive to Vinblastine (VBL), a microtubule-disrupting drug. It has been shown that a low concentration of VBL (nM) alters microtubule dynamics without depolymerizing microtubules. As a result, it affects chromosome movement during metaphase and delays chromosome congression. In addition Vinblastine disrupts kinetochore tension without affecting spindle-kinetochore attachment.
siRNA depletion using thymidine-synchronized cells, which were released into culture media with different concentrations of VBL for 14 hr, was followed by immunofluorescence staining as described in the previous section.

[3] = test system: S. pombe bir1-46 (Sp287); test: Growth of bir1-46 on YES plates with thiabendazole; format: cell-based; details: 10 μg/ml TBZ, permissive temperature (28° C.), 3 days
Procedure: Briefly, to identify the phenotypes of the temperature sensitive allele, bir1-46, Wild-type and bir1-46 (Sp287) were streaked out on YES plates or 10 μg/ml of thiabendazole (TBZ), followed by incubation at either 28° C. or 32° C. for 3 days. Wild-type, bir1-46, and a rad3Δ were grown in YES medium to mid log phase (O.D.595=0.5-0.6) and then plated on YES plates followed by UV irradiation. Plates were cultured at 28° C. with a foil cover for 1 day and without a foil cover for subsequent 4 days. Colony numbers were calculated and survival rates were determined based on control plates, which were not irradiated. bir1-46 was transformed with vector alone (pUR19), pUR19-bir1^+, pUR19-Bsh3^+, or pUR19-pic1^+. Transformants were streaked out on YES plates followed by incubation at either 28° C. or 34° C. for 3 days. To conduct the high-copy suppressor screen, Sp287 (bir-46) was transformed with either a cDNA or genomic DNA library. Transformants were incubated at 28° C. for 20 hr followed by further incubation at 34° C. for five days.
Given that bir1^+ is required for chromosome segregation and cytokinesis, it is plausible that bir1^+ is also involved in mitotic spindle integrity.

CC1=C(/C=C/C(C)=C/C=C/C(C)=C/C(=O)O)C(C)(C)CCC1 [retenoic acid]
Bsh3 expression [1]: reduction and elimination of Bsh3 expression

CC[C@]1(O)C[C@@H]2CN(CCc3c([nH]c4ccccc34)[C@@](C(=O)OC)(c3cc4c(cc3OC)N(C)[C@H]3[C@@](O)(C(=O)OC)[C@H](OC(C)=O)[C@]5(CC)C=CCN6CC[C@]43[C@@H]65)C2)C1 [VBL, Vinblastine]
% of cells in metaphase ([2]; VBL 0.1 nM for 14 hr): 1.5% | % of cells in metaphase ([2]; VBL 0.5 nM for 14 hr): 1.7% | % of cells in metaphase ([2]; VBL 1 nM for 14 hr): 13.6%

c1ccc2[nH]c(-c3cscn3)nc2c1 [TBZ, Thiabendazole]
growth of bir1-46 [3]: failed to grow

— US20060057153A1, “Method and composition for the inhibition of mitosis” (priority 2002, published 2006)
